Tested on: Ishikawa cells
Experiment: Tumorsphere growth with and without Mct-4 overexpression
Type: cell-based
Details: 72 hr
Protocol: After 18 hr, 10× drug was added, and after 72 hr, plates were imaged.

With Cc1cc(-c2nc(-c3ccc(OC(F)(F)F)cc3)no2)nn1Cc1ccnc(N2CCN(C3CC3)CC2)c1 [Bay87-2243] the tumorsphere growth (Ishikawa cells, 384-well round bottom) was “tumorsphere growth inhibition” and the “tumorsphere growth inhibition under Mct-4 overexpression” value (Mct-4 overexpressing Ishikawa cells) was “Mct-4 overexpression reverses tumorsphere growth inhibition”.

Source: patent publication US20240352533A1, “Monocarboxylic Acid Transporter 4 as a Biomarker for Hypoxia Driven Tumor Growth and Treatment” (NantBio, Inc., priority 2023, published 2024)
